Inconclusive results and toxic doses are left out. Rule as the data show it: active = T/C of 150% or more; inactive = T/C below 125%.
System: L1210 leukemia ip in BDF1 mice, survival T/C
Experiment: NCI In Vivo Anticancer Drug Screen. Data for tumor model L1210 Leukemia (intraperitoneal) in B6D2F1 (BDF1) mice
Details: endpoint: mean survival time, higher = longer survival
Method in brief: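 Tumor cells were implanted, animals were treated, and survival was followed. The result divides the treated measurement by the vehicle-control measurement.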

[1] = dose: 100.0 mg/kg/injection, schedule: Q01DX009 (ip), vehicle: Klucel (hydroxypropylcellulose) (HPC)
[2] = dose: 200.0 mg/kg/injection, schedule: Q01DX009 (ip), vehicle: Klucel (hydroxypropylcellulose) (HPC)

Measured: T/C

CCCCCCCCCCCCCCC[n+]1ccc(C#N)cc1
inactive: dose: 5.0 mg/kg/injection, schedule: Q01DX009 (ip), vehicle: acetone 101 % of control | dose: 10.0 mg/kg/injection, schedule: Q01DX001 (ip), vehicle: saline 93 % of control | dose: 10.0 mg/kg/injection, schedule: Q01DX009 (ip), vehicle: acetone 100 % of control | dose: 10.0 mg/kg/injection, schedule: Q04DX003 (ip), vehicle: saline 101 % of control | dose: 20.0 mg/kg/injection, schedule: Q01DX001 (ip), vehicle: saline 93 % of control | dose: 20.0 mg/kg/injection, schedule: Q04DX003 (ip), vehicle: saline 94 % of control | dose: 40.0 mg/kg/injection, schedule: Q01DX001 (ip), vehicle: saline 98 % of control | dose: 40.0 mg/kg/injection, schedule: Q04DX003 (ip), vehicle: saline 92 % of control

Clc1ccc(Cl)c(CBr)c1Cl
inactive: dose: 25.0 mg/kg/injection, schedule: Q04DX003 (ip), vehicle: Klucel (hydroxypropylcellulose) (HPC) 98 % of control | dose: 50.0 mg/kg/injection, schedule: Q01DX009 (ip), vehicle: Klucel (hydroxypropylcellulose) (HPC) 98 % of control | dose: 50.0 mg/kg/injection, schedule: Q04DX003 (ip), vehicle: Klucel (hydroxypropylcellulose) (HPC) 101 % of control | [1] 88 % of control | dose: 100.0 mg/kg/injection, schedule: Q04DX003 (ip), vehicle: Klucel (hydroxypropylcellulose) (HPC) 101 % of control | dose: 100.0 mg/kg/injection, schedule: Q04DX003 (ip), vehicle: saline with Tween-80 100 % of control | [2] 90 % of control

Nc1nc(N)c2c(Cl)c(CNc3ccc(C(=O)NC(CC(=O)O)CC(=O)O)cc3)ccc2n1
active: dose: 12.5 mg/kg/injection, schedule: Q04DX003 (ip), vehicle: saline 157 % of control | dose: 25.0 mg/kg/injection, schedule: Q04DX003 (ip), vehicle: saline 178 % of control
inactive: dose: 50.0 mg/kg/injection, schedule: Q04DX003 (ip), vehicle: saline 90 % of control

O=C(Nc1ccc(Cl)c(Cl)c1)OCCN1CCOCC1
inactive: [1] 92 % of control | [2] 94 % of control | dose: 400.0 mg/kg/injection, schedule: Q01DX009 (ip), vehicle: Klucel (hydroxypropylcellulose) (HPC) 92 % of control

COc1ccc(/C=C/C2=CC(=O)CC(c3ccc(OC)c(OC)c3)C2)cc1OC (stereo unspecified)
inactive: dose: 100.0 mg/kg/injection, schedule: Q04DX002 (ip), vehicle: saline with Tween-80 102 % of control | dose: 200.0 mg/kg/injection, schedule: Q04DX002 (ip), vehicle: saline with Tween-80 102 % of control | dose: 400.0 mg/kg/injection, schedule: Q04DX002 (ip), vehicle: saline with Tween-80 105 % of control

O=C(O)Cc1ccc(C2CCCCC2)cc1
inactive: dose: 37.5 mg/kg/injection, schedule: Q01DX Z (ip), vehicle: carboxymethylcellulose (CMC) 98 % of control | dose: 75.0 mg/kg/injection, schedule: Q01DX Z (ip), vehicle: carboxymethylcellulose (CMC) 95 % of control | dose: 150.0 mg/kg/injection, schedule: Q01DX Z (ip), vehicle: carboxymethylcellulose (CMC) 102 % of control | dose: 300.0 mg/kg/injection, schedule: Q01DX Z (ip), vehicle: carboxymethylcellulose (CMC) 102 % of control

COc1cccc(CCCC(=O)O)c1OC
inactive: dose: 100.0 mg/kg/injection, schedule: Q04DX003 (ip), vehicle: gum acacia 99 % of control | dose: 200.0 mg/kg/injection, schedule: Q04DX003 (ip), vehicle: gum acacia 94 % of control | dose: 400.0 mg/kg/injection, schedule: Q04DX003 (ip), vehicle: gum acacia 96 % of control

O=NN(CCF)C(=O)NC1CC2CCC1C2 (stereo unspecified)
inactive: dose: 3.12 mg/kg/injection, schedule: Q01DX001 (ip), vehicle: other 108 % of control | dose: 5.7 mg/kg/injection, schedule: Q01DX001 (ip), vehicle: other 104 % of control | dose: 6.25 mg/kg/injection, schedule: Q01DX001 (ip), vehicle: other 118 % of control
active: dose: 12.5 mg/kg/injection, schedule: Q01DX001 (ip), vehicle: other 150 % of control | dose: 23.0 mg/kg/injection, schedule: Q01DX001 (ip), vehicle: other 180 % of control | dose: 25.0 mg/kg/injection, schedule: Q01DX001 (ip), vehicle: other 180 % of control | dose: 37.0 mg/kg/injection, schedule: Q01DX001 (ip), vehicle: other 308 % of control | dose: 37.5 mg/kg/injection, schedule: Q01DX001 (ip), vehicle: other 361 % of control | dose: 46.0 mg/kg/injection, schedule: Q01DX001 (ip), vehicle: other 310 % of control | dose: 56.0 mg/kg/injection, schedule: Q01DX001 (ip), vehicle: other 348 % of control

— PubChem BioAssay AID248 (DTP/NCI, 2004)
